Experimental data from patent publication US10392422B2, “Macrocyclic broad spectrum antibiotics” (priority 2014, dated 2019).

Tested on: MRSA strain USA300
Assay: Checkerboard synergy assay (2D MIC) with imipenem
Format: cell-based, Staphylococcus aureus
Details: many points of the isobologram (FIG. 1); synergy defined as sum of the FICs ≤0.5; 35° C., 22 hours
Procedure: 2D MIC assay or “checkerboard assays” are the most common method used to quantify synergistic or antagonistic interactions between two antibiotics with respect to potency (Hallander, H. O., et al., Antimicrob. Agents Chemother. 1982 22:743-752). In this assay in each axis of a 96-well plate contains a 2-fold dilution of a given agent, such that each well contains a unique combination of the agents being tested.
To create a checkerboard dilution scheme, imipenem was diluted in Mueller Hinton II Broth+0.002% Tween-80 to twice the final desired concentration, and six 2-fold serial dilutions were performed in the same media yielding seven imipenem concentrations. Dilutions of Compound 155 were prepared similarly except that ten dilutions were performed for a total of eleven concentrations. […]
MRSA strain USA300 was grown overnight at 35° C. on Mueller Hinton Agar plates, and colonies were suspended in Mueller Hinton II Broth+0.002% Tween-80 to a final density of 1*10^7 cfu/ml. […] The plate was incubated at 35° C. for 22 hours after which growth was determined via visual inspection. For each sub-MIC concentration of imipenem, the concentration of Compound 155 required to prevent visible growth was recorded, and the fractional inhibitor concentration (FIC) of each agent was calculated by dividing the concentration of each agent by MIC of the agent alone. […]

## CCCCCCCCCCNCCC(=O)N[C@@H](CCCCN)C(=O)N(C)[C@@H]1C(=O)N[C@@H](C)C(=O)N[C@H](C(=O)N[C@@H](C)C(=O)N2CCC[C@H]2C(N)=O)Cc2ccc(O)c(c2)-c2cc1ccc2O.O=CO [Compound 155]
  sum of the FICs (fractional inhibitor concentration) of Compound 155 and imipenem: < 0.5
